Test results published in patent US20230322767A1, “ARYL SUBSTITUTED PYRROLO-PYRIDINONES AND THERAPEUTIC USES THEREOF” (Bayer Aktiengesellschaft, priority 2020, published 2023).

What follows are compounds tested against wild-type Epidermal Growth Factor Receptor (EGFR) (Homo sapiens (Human), UniProt P00533) (assay: WT-EGFR Kinase Assay (TR-FRET, 2 mM ATP)). Settings: EGFR Wildtyp 2 mM ATP IC50 [mol/l] (median), median or individual measurements.
Assay type: biochemical
How it was run: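 GST-tagged human EGFR (R669–A1210, Sf9-expressed) preincubated 15 min at 22° C with compound in pH 7.0 Hepes/MgCl2 buffer, then reacted at 2 mM ATP with a biotinylated peptide substrate. Phosphorylation detected by TR-FRET (streptavidin-XL665, Tb-cryptate anti-phosphotyrosine) as the 665/620 nm emission ratio.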

wild-type Epidermal Growth Factor Receptor (EGFR), sequence (P00533 669-1210): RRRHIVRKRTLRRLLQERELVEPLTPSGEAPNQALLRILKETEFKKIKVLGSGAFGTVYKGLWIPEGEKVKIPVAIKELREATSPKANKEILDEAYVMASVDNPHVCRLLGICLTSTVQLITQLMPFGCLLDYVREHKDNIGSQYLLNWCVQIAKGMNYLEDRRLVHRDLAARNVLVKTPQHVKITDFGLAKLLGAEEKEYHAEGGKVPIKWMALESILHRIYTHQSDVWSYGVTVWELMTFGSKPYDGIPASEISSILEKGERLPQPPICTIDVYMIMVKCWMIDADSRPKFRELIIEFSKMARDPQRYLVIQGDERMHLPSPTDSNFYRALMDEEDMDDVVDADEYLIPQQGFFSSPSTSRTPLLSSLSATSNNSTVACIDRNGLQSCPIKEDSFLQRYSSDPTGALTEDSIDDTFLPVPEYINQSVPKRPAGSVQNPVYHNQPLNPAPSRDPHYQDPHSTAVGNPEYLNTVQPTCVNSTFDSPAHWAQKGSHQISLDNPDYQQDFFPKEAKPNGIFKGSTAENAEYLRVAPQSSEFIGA

Structure (SMILES)	IC50 [µM]
O=C(Nc1cc(-c2[nH]c3cc[nH]c(=O)c3c2-c2ccccc2)ccn1)C(CC(F)F)c1ccc(F)cc1 (racemic) [Example 76, 4,4-difluoro-2-(4-fluorophenyl)-N-[4-(4-oxo-3-phenyl-4,5-dihydro-1H-pyrrolo[3,2-c]pyridin-2-yl)pyridin-2-yl]butanamide]	> 20
CC(C(=O)Nc1cc(-c2[nH]c3c(CC(F)(F)F)cn(C)c(=O)c3c2-c2ccc(F)cc2)ccn1)c1ccc(F)cc1 (single isomer, unassigned; (-)) [Example 023, (-)-2-(4-fluorophenyl)-N-{4-[3-(4-fluorophenyl)-5-methyl-4-oxo-7-(2,2,2-trifluoroethyl)-4,5-dihydro-1H-pyrrolo[3,2-c]pyridin-2-yl]pyridin-2-yl}propanamide]	> 20
Cc1cn(C)c(=O)c2c(-c3ccc(F)cc3)c(-c3ccnc(NC(=O)C(C)c4ccc(F)cc4)c3)[nH]c12 (single isomer, unassigned; (-)) [Example 031, (-)-2-(4-fluorophenyl)-N-{4-[3-(4-fluorophenyl)-5,7-dimethyl-4-oxo-4,5-dihydro-1H-pyrrolo[3,2-c]pyridin-2-yl]pyridin-2-yl}propanamide]	> 20
Cc1cn(C)c(=O)c2c(-c3ccc(F)cc3)c(-c3ccnc(NC(=O)C(CC(F)F)c4ccc(F)cc4)c3)[nH]c12 (single isomer, unassigned; (-)) [Example 035, (-)-4,4-difluoro-2-(4-fluorophenyl)-N-{4-[3-(4-fluorophenyl)-5,7-dimethyl-4-oxo-4,5-dihydro-1H-pyrrolo[3,2-c]pyridin-2-yl]pyridin-2-yl}butanamide]	> 20
CN1C(=O)c2c([nH]c(-c3ccnc(NC(=O)C(CC(F)F)c4ccc(F)cc4)c3)c2-c2ccccc2)CC12CCC2 (single isomer, unassigned; (-)) [Example 050, (-)-4,4-difluoro-2-(4-fluorophenyl)-N-[4-(5′-methyl-4′-oxo-3′-phenyl-1′,4′,5′,7′-tetrahydrospiro-[cyclobutane-1,6′-pyrrolo[3,2-c]pyridin]-2′-yl)pyridin-2-yl]butanamide]	11.9
CC(C(=O)Nc1cc(-c2[nH]c3c(c2-c2ccccc2)C(=O)N(C)C2(CCC2)C3)ccn1)c1ccc(F)cc1 (single isomer, unassigned; (-)) [Example 053, (-)-2-(4-fluorophenyl)-N-[4-(5′-methyl-4′-oxo-3′-phenyl-1′,4′,5′,7′-tetrahydrospiro[cyclobutane-1,6′-pyrrolo[3,2-c]pyridin]-2′-yl)pyridin-2-yl]propanamide]	> 20

Same assay, conditions: read-out: EGFR Wildtyp 2 mM ATP IC50 [mol/l] (median), median or individual measurements

Structure (SMILES)	IC50 [µM]
CN1CCc2[nH]c(-c3ccnc(NC(=O)Cc4ccc(F)cc4)c3)c(-c3cccnc3)c2C1=O [Example 012, 2-(4-fluorophenyl)-N-{4-[5-methyl-4-oxo-3-(pyridin-3-yl)-4,5,6,7-tetrahydro-1H-pyrrolo[3,2-c]pyridin-2-yl]pyridin-2-yl}acetamide]	> 20
CC(C(=O)Nc1cc(-c2[nH]c3c(c2-c2ccccc2)C(=O)N(C)CC3CC(F)(F)F)ccn1)c1ccc(F)cc1 (stereo not drawn) [Example 013]	> 20
CN1CC(CC(F)(F)F)c2[nH]c(-c3ccnc(NC(=O)C(CC(F)F)c4ccc(F)cc4)c3)c(-c3ccccc3)c2C1=O (stereo not drawn) [Example 017]	> 20
CC(C(=O)Nc1cc(-c2[nH]c3c(c2-c2ccc(F)cc2)C(=O)N(C)CC3CC(F)(F)F)ccn1)c1ccc(F)cc1 (stereo not drawn) [Example 021]	> 20
CN1CC(CC(F)(F)F)c2[nH]c(-c3ccnc(NC(=O)C(CC(F)F)c4ccc(F)cc4)c3)c(-c3ccc(F)cc3)c2C1=O (stereo not drawn) [Example 025]	> 20
CC1CN(C)C(=O)c2c1[nH]c(-c1ccnc(NC(=O)C(C)c3ccc(F)cc3)c1)c2-c1ccc(F)cc1 (stereo not drawn) [Example 029]	> 20
CC1CN(C)C(=O)c2c1[nH]c(-c1ccnc(NC(=O)C(C)c3ccc(F)cc3)c1)c2-c1ccccc1 (stereo not drawn) [Example 037]	> 20
CC1CN(C)C(=O)c2c1[nH]c(-c1ccnc(NC(=O)C(CC(F)F)c3ccc(F)cc3)c1)c2-c1ccccc1 (stereo not drawn) [Example 039]	> 20
CC1c2[nH]c(-c3ccnc(NC(=O)C(CC(F)F)c4ccc(F)cc4)c3)c(-c3ccccc3)c2C(=O)N(C)C1C (stereo not drawn) [Example 041]	> 20
CC1(C)CNC(=O)c2c1[nH]c(-c1ccnc(NC(=O)Cc3ccc(F)cc3)c1)c2-c1ccccc1 [Example 042, N-[4-(7,7-dimethyl-4-oxo-3-phenyl-4,5,6,7-tetrahydro-1H-pyrrolo[3,2-c]pyridin-2-yl)pyridin-2-yl]-2-(4-fluorophenyl)acetamide]	5.6
Cn1cc(CC2CC2)c2[nH]c(-c3ccnc(NC(=O)Cc4ccc(F)cc4)c3)c(-c3ccccc3)c2c1=O [Example 056, N-{4-[7-(cyclopropylmethyl)-5-methyl-4-oxo-3-phenyl-4,5-dihydro-1H-pyrrolo[3,2-c]pyridin-2-yl]pyridin-2-yl}-2-(4-fluorophenyl)acetamide]	> 20
CC(C(=O)Nc1cc(-c2[nH]c3c(c2-c2ccccc2)C(=O)N(C)CC3CC2CC2)ccn1)c1ccc(F)cc1 (stereo not drawn) [Example 057]	> 20
CN1CC(CC2CC2)c2[nH]c(-c3ccnc(NC(=O)C(CC(F)F)c4ccc(F)cc4)c3)c(-c3ccccc3)c2C1=O (stereo not drawn) [Example 059]	> 20
CC(C(=O)Nc1cc(-c2[nH]c3c(c2-c2ccc(F)cc2)C(=O)N(C)CC3CC2CC2)ccn1)c1ccc(F)cc1 (stereo not drawn) [Example 062]	> 5.71

These compounds were tested against CSNK1A1 (Homo sapiens (Human), UniProt P48729) (assay: CSNK1A1 Assay 2 (ADP-Glo, 1 μM ATP)). Settings: median, read-out: CSNK1A1 Assay 2 IC50 [mol/l] (median).
Assay type: biochemical
Description: CSNK1A1-inhibitory activity of compounds of the present invention in presence of 1 μM adenosine-tri-phosphate (ATP) was quantified employing the CSNK1A1 assay as described in the following paragraphs. In essence, the enzyme activity is measured by quantification of the adenosine-di-phosphate (ADP), which is generated as a co-product of the enzyme reaction, via the “ADP-Glo™ Kinase Assay” kit from the company Promega. This detection system works as follows: In a first step the ATP not consumed in the kinase reaction is quantitatively converted to cAMP employing an adenylate cyclase (“ADP-Glo-reagent”), then the adenylate cyclase is stopped and the ADP generated in the kinase reaction converted to ATP which generates in a luciferase-based reaction a glow-luminescence signal (“Kinase Detection Reagent”).
As substrate for the kinase reaction the biotinylated peptide biotin-Ahx-KRRRAL-pS-VASLPGL (C-terminus in amide form) was used which can be purchased e.g. from the company Biosyntan (Berlin-Buch, Germany).
For the assay 50 nl of a 100 fold concentrated solution of the test compound in DMSO was pipetted into a white 1536-well microtiter plate (Greiner Bio-One, Frickenhausen, Germany), 2 μL of a solution of CSNK1A1 in aqueous assay buffer [50 mM HEPES pH 7.5, 10% (v/v) glycerol, 10 mM MgCl2, 50 mM NaCl, 1 mM dithiothreitol, 0.01% (w/v) bovine serum albumin, 0.01% (v/v) Triton X-100] were added and the mixture was incubated for 15 min at 22° C. to allow pre-binding of the test compounds to the enzyme before the start of the kinase reaction. […] The concentration of CSNK1A1 was adjusted depending of the activity of the enzyme lot and was chosen appropriate to have the assay in the linear range, a typical concentrations are about 0.0375 ng/μL. The reaction was stopped by the addition of 2.5 μL of “ADP-Glo-reagent” (1:1.5 fold diluted with water) and the resulting mixture was incubated at 22° C. for 1 h to convert the ATP not consumed in the kinase reaction completely […]. Subsequently 2.5 μL of the “kinase detection reagent” (1.2 fold more concentrated than recommended by the producer) were added, the resulting mixture was incubated at 22° C. for 1 h and then the luminescence measured with a suitable measurement instrument (e.g. Viewlux™ from Perkin-Elmer). The amount of emitted light was taken as a measure for the amount of ADP generated and thereby for the activity of the CSNK1A1.

CSNK1A1, sequence (P48729 whole entry): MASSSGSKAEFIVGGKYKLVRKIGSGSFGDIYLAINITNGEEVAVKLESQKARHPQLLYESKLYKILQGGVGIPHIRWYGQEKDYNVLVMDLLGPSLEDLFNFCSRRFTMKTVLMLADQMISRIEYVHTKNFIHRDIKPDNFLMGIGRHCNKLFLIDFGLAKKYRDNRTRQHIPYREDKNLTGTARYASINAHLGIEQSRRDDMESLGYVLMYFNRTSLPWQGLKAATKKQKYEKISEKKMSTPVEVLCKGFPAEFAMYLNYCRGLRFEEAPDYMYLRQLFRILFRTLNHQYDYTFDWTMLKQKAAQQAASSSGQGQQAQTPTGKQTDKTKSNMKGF

Structure (SMILES)	IC50 [µM]
O=C(Nc1cc(-c2[nH]c3cc[nH]c(=O)c3c2-c2ccccc2)ccn1)C(CC(F)F)c1ccc(F)cc1 (racemic) [Example 76, 4,4-difluoro-2-(4-fluorophenyl)-N-[4-(4-oxo-3-phenyl-4,5-dihydro-1H-pyrrolo[3,2-c]pyridin-2-yl)pyridin-2-yl]butanamide]	0.002
